These results are taken from patent publication US20070213339A1 (Bayer Pharmaceuticals Corporation, priority 2004, published 2007).

Molecules are shown by their SMILES.

The subject of this test is Colo205 human colon carcinoma cell line. Nature of the test: In vitro tumor cell proliferation assay (MTS, CellTiter 96 Aqueous One Solution). In kind it is cell-based. To be noted: COLO 205, Colo205 cells, 72 hours compound exposure, MTS absorbance at 490 nm, read-out: IC50 (concentration of test compound required to inhibit proliferation of 50% of the cells). The method in brief:
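Proliferation measured as MTS tetrazolium reduction (490 nm) after 72 h compound exposure at 37 °C. Cells plated at 2000 per well in serum-supplemented RPMI-1640; duplicate 5-point dilutions topping out at 10-20 μM. Percent inhibition versus untreated and cell-free wells, IC50 derived by linear regression.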
For `O=C(O)c1cn(-c2ccc(CNC3CCCC3)cc2)c2c(Cl)c(N3CCN(c4ncccn4)CC3)c(F)cc2c1=O` [Example 57, 8-chloro-1-{4-[(cyclopentylamino)methyl]-phenyl}-6-fluoro-4-oxo-7-(4-pyrimidin-2-ylpiperazin-1-yl)-1,4-dihydroquinoline-3-carboxylic acid], the IC50 was < 500 nM. In the case of `Cc1cccnc1N1CCN(c2c(F)cc3c(=O)c(C(=O)O)cn(-c4ccc(CN5CCCC5)cc4F)c3c2Cl)CC1` [Example 44, 8-chloro-6-fluoro-1-[2-fluoro-4-(pyrrolidin-1-ylmethyl)phenyl]-7-[4-(3-methylpyridin-2-yl)piperazin-1-yl]-4-oxo-1,4-dihydroquinoline-3-carboxylic acid], the IC50 is < 500 nM. Under `O=C(O)c1cn(-c2ccc(CN3CCCC3)cc2)c2c(Cl)c(N3CCN(c4ncccc4C(F)(F)F)CC3)c(F)cc2c1=O` [Example 14, 8-chloro-6-fluoro-4-oxo-1-[4-(pyrrolidin-1-yl-methyl)phenyl]-7-{4-[3-(trifluoromethyl)pyridin-2-yl]piperazin-1-yl}-1,4-dihydroquinoline-3-carboxylic acid] stands 500 to 2000 nM; under `COc1c(N2CCN(c3cccc(F)c3)CC2)c(F)cc2c(=O)c(C(=O)O)cn(-c3ccc(CN4CCCC4)cc3)c12` [Example 85, 6-fluoro-7-[4-(3-fluorophenyl)piperazin-1-yl]-8-methoxy-4-oxo-1-[4-(pyrrolidin-1-ylmethyl)phenyl]-1,4-dihydroquinoline-3-carboxylic acid], < 500 nM; under `COC[C@H]1CCCN1Cc1ccc(-n2cc(C(=O)O)c(=O)c3cc(F)c(N4CCN(c5ccc(F)cc5)CC4)c(Cl)c32)cc1` [Example 23, 8-chloro-6-fluoro-7-[4-(4-fluorophenyl)-piperazin-1-yl]-1-(4-{[(2R)-2-(methoxymethyl)pyrrolidin-1-yl]methyl}phenyl)-4-oxo-1,4-dihydroquinoline-3-carboxylic acid], < 500 nM. Under `CCN(CC)Cc1ccc(-n2cc(C(=O)O)c(=O)c3cc(F)c(N4CCN(c5ccccc5Cl)CC4)c(OC)c32)cc1` [Example 109, 7-[4-(2-chlorophenyl)piperazin-1-yl]-1-{4-[(diethylamino)methyl]phenyl}-6-fluoro-8-methoxy-4-oxo-1,4-dihydroquinoline-3-carboxylic acid] stands 500 to 2000 nM; under `O=C(O)c1cn(-c2cccc(CN3CCCCC3)c2)c2c(OC(F)(F)F)c(N3CCN(c4cccc(Cl)c4)CC3)c(F)cc2c1=O` [Example 145, 7-[4-(3-chlorophenyl)piperazin-1-yl]-6-fluoro-4-oxo-1-[3-(piperidin-1-ylmethyl)phenyl]-8-(trifluoromethoxy)-1,4-dihydroquinoline-3-carboxylic acid], 500 to 2000 nM; under `O=C(O)c1cn(-c2cccc(CN3CCCCC3)c2)c2c(Cl)c(N3CCN(c4ccccn4)CC3)c(F)cc2c1=O` [Example 65, 8-chloro-6-fluoro-4-oxo-1-[3-(piperidin-1-yl-methyl)phenyl]-7-(4-pyridin-2-ylpiperazin-1-yl)-1,4-dihydroquinoline-3-carboxylic acid], 2000 to 20000 nM. Under `C[C@H]1CCCCN1Cc1ccc(-n2cc(C(=O)O)c(=O)c3cc(F)c(N4CCN(c5ncccn5)CC4)c(OC(F)(F)F)c32)cc1` [Example 139, 6-fluoro-1-(4-{[(2S)-2-methylpiperidin-1-yl]methyl}phenyl)-4-oxo-7-(4-pyrimidin-2-ylpiperazin-1-yl)-8-(trifluoromethoxy)-1,4-dihydroquinoline-3-carboxylic acid] stands < 500 nM. For the compound `O=C(O)c1cn(-c2cccc(CN3CCCCC3)c2)c2c(OC(F)(F)F)c(N3CCN(c4ncccn4)CC3)c(F)cc2c1=O` [Example 143, 6-fluoro-4-oxo-1-[3-(piperidin-1-yl-methyl)phenyl]-7-(4-pyrimidin-2-ylpiperazin-1-yl)-8-(trifluoromethoxy)-1,4-dihydroquinoline-3-carboxylic acid], the IC50 lay in the range of 500 to 2000 nM. Under `COc1cc(CNC2CCCC2)ccc1-n1cc(C(=O)O)c(=O)c2cc(F)c(N3CCN(c4ccc(F)cc4)CC3)c(Cl)c21` [Example 179, 8-chloro-1-(4-cyclopentylaminomethyl-2-methoxyphenyl)-6-fluoro-7-[4-(4-fluorophenyl)-piperazine-1-yl]-4-oxo-1,4-dihydroquinoline-3-carboxylic acid] stands 500 to 2000 nM; under `N#Cc1ccc(N2CCN(c3c(F)cc4c(=O)c(C(=O)O)cn(-c5ccc(CN6CCCC6)cc5F)c4c3Cl)CC2)nc1` [Example 47, 8-chloro-7-[4-(5-cyanopyridin-2-yl)piperazin-1-yl]-6-fluoro-1-[2-fluoro-4-(pyrrolidin-1-ylmethyl)phenyl]-4-oxo-1,4-dihydroquinoline-3-carboxylic acid], 500 to 2000 nM; under `COc1c(N2CCN(c3ccccc3C#N)CC2)c(F)cc2c(=O)c(C(=O)O)cn(-c3ccc(CN4CCCCC4)cc3)c12` [Example 89, 7-[4-(2-cyanophenyl)piperazin-1-yl]-6-fluoro-8-methoxy-4-oxo-1-[4-(piperidin-1-ylmethyl)phenyl]-1,4-dihydroquinoline-3-carboxylic acid], < 500 nM.

In the case of `CCN(CC)Cc1ccc(-n2cc(C(=O)O)c(=O)c3cc(F)c(N4CCN(c5ccccn5)CC4)c(OC(F)(F)F)c32)cc1` [Example 132, 1-{4-[(diethylamino)methyl]phenyl}-6-fluoro-4-oxo-7-(4-pyridin-2-ylpiperazin-1-yl)-8-(trifluoromethoxy)-1,4-dihydroquinoline-3-carboxylic acid], the IC50 is < 500 nM. Under `CCN(CC)Cc1ccc(-n2cc(C(=O)O)c(=O)c3cc(F)c(N4CCN(c5ccc(F)cc5)CC4)c(OC)c32)cc1` [Example 105, 1-{4-[(diethylamino)methyl]phenyl}-6-fluoro-7-[4-(4-fluorophenyl)piperazin-1-yl]-8-methoxy-4-oxo-1,4-dihydroquinoline-3-carboxylic acid] stands < 500 nM; under `CCN(C)Cc1ccc(-n2cc(C(=O)O)c(=O)c3cc(F)c(N4CCN(c5ccc(Cl)cc5)CC4)c(OC(F)(F)Cl)c32)cc1` [Example 168, 8-[chloro(difluoro)methoxy]-7-[4-(4-chlorophenyl)piperazin-1-yl]-1-(4-{[ethyl(methyl)amino]methyl}phenyl)-6-fluoro-4-oxo-1,4-dihydroquinoline-3-carboxylic acid], < 500 nM. Under `N#Cc1ccccc1N1CCN(c2c(F)cc3c(=O)c(C(=O)O)cn(-c4ccc(CN5CCCC5)cc4)c3c2Cl)CC1` [Example 4, 8-chloro-6-fluoro-7-[4-(2-cyanophenyl)-piperazin-1-yl]-4-oxo-1-[4-(pyrrolidin-1-ylmethyl)phenyl]1,4-dihydroquinoline-3-carboxylic acid] stands < 500 nM; under `O=C(O)c1cn(-c2ccc(CN3CCCC3)cc2)c2c(Cl)c(N3CCN(c4ncccn4)CC3)c(F)cc2c1=O` [Example 6, 8-chloro-6-fluoro-4-oxo-7-(4-pyrimidin-2-ylpiperazin-1-yl)-1-[4-(pyrrolidin-1-ylmethyl)phenyl]-1,4-dihydroquinoline-3-carboxylic acid], < 500 nM.

On to `CCN(CC)Cc1ccc(-n2cc(C(=O)O)c(=O)c3cc(F)c(N4CCN(c5ccc(Cl)cc5)CC4)c(OC)c32)cc1` [Example 118, 7-[4-(4-chlorophenyl)piperazin-1-yl]-1-{4-[(diethylamino)methyl]phenyl}-6-fluoro-8-methoxy-4-oxo-1,4-dihydroquinoline-3-carboxylic acid], for which the IC50 is < 500 nM. In the case of `CON(C)Cc1ccc(-n2cc(C(=O)O)c(=O)c3cc(F)c(N4CCN(c5ccc(F)cc5)CC4)c(Cl)c32)cc1` [Example 51, 8-chloro-6-fluoro-7-[4-(4-fluorophenyl)-piperazin-1-yl]-1-(4-{[methoxy(methyl)amino]methyl}phenyl)-4-oxo-1,4-dihydroquinoline-3-carboxylic acid], the IC50 is 2000 to 20000 nM. As to `N#Cc1ccccc1N1CCN(c2c(F)cc3c(=O)c(C(=O)O)cn(-c4ccc(CN5CC[C@H](O)C5)cc4)c3c2Cl)CC1` [Example 30, 8-chloro-7-[4-(2-cyanophenyl)piperazin-1-yl]-6-fluoro-1-(4-{[(3S)-3-hydroxypyrrolidin-1-yl]methyl}phenyl)-4-oxo-1,4-dihydroquinoline-3-carboxylic acid], the IC50 is < 500 nM. Next, `COc1c(N2CCN(c3cccc(Cl)c3)CC2)c(F)cc2c(=O)c(C(=O)O)cn(-c3ccc(CN(C)C)cc3)c12` [Example 98, 7-[4-(3-chlorophenyl)piperazin-1-yl]-1-{4-[(dimethylamino)methyl]phenyl}-6-fluoro-8-methoxy-4-oxo-1,4-dihydroquinoline-3-carboxylic acid]: < 500 nM.
